Experiments:
[1] = system: NSC34 cells; experiment: Screening of neurite length in NSC34 cells; type: cell-based, mouse; details: dose dependency, FIG. 1
Method: The cells were seeded in DMEM/F12 differentiation medium (Invitrogen) supplemented with 1% FBS and […] doxycycline in a 96-well plate at 1.6×10^3 cells/cm^2 to induce the expression of GFP. […] Subsequently, cell nuclei were stained with Hoechst 33342 (1:100,000, Sigma Aldrich). Sixteen images per well were acquired on ArrayScan VTI HCS Reader (Thermo Scientific Cellomics). The average of neurite length in each well was automatically determined using Neuronal Profiling v4.0 BioApplication (Thermo Scientific Cellomics).

[2] = system: primary motor neurons; experiment: Neurite outgrowth in primary spinal cord motor neurons; type: cell-based, mouse
Method: Primary cultured mouse embryonic spinal cord motor neurons were isolated from spinal cord embryo of C57BL/6J mouse on 13.5th day of embryonic stage (E13.5). Solutions of zonisamide in DMSO were prepared at concentrations from 200 μmol/L to […] and then added to the culture medium to obtain the final concentration of zonisamide from 1 μmol/L to 20 μmol/L. The culture medium contained 0.5% DMSO whether or not it contained zonisamide. The cells were seeded at 4.0×10^3 cells/cm^2 in a 96-well plate (Asahi Techno Glass) coated with poly-L-lysine and laminin and maintained in Sumilon neuron culture medium (Sumitomo Bakelite). After incubation for 2 days, the cells were fixed in PBS with 4% […] at ordinary temperature for 15 minutes. The cells were washed with PBS once, blocked with PBS containing 2% goat serum and 0.1% Triton-X, and immunostained with mouse anti-tau-1 monoclonal antibody (1:500, MAB3420, Millipore) and Alexa Fluor 555-conjugated goat anti-mouse secondary antibody (1:1000, Life Technologies). Neurites were automatically analyzed on ArrayScan VTI HCS Reader. The neurite length and the number of nerve branch points were quantified by evaluating the longer 200 neurites. The ratio of neurite-bearing cells was determined by counting cells having a neurite length of 25 micron or more in each well.

[3] = system: primary motor neurons; experiment: Time-lapse imaging of axonal growth; type: cell-based, mouse
Method: Primary cultured motor neurons were seeded in a 96-well plate at 6.0×10^3 cells/well in Sumilon neuron culture medium to induce neurite outgrowth. Phase-contrast images were taken every 8 hours for 3 days on IncuCyte ZOOM Live Cell Imaging System (Essen Bioscience). The neurite length was automatically analyzed with NeuroTrack software (IncuCyte).

[4] = system: Bdnf, Ngf, Ntf4, Ntrk1, Ntrk2, Map2, Mapt, and Gap43; experiment: Real-time RT-PCR of genes associated with neurite outgrowth in primary motor neurons; type: cell-based, mouse
Text: Total RNA was isolated, using Trizol (Thermo Fisher Scientific), from primary motor neurons cultured with 0, 1, or 10 μmol/L zonisamide. Similarly, total RNA was isolated from sciatic nerve segments with a length of 3 mm or from tibialis anterior muscle. Single-stranded cDNA was synthesized using ReverTra Ace (Toyobo). The mRNA expression levels of Bdnf, Ngf, Ntf4, Ntrk1, Ntrk2, Map2, Mapt, and Gap43 were quantified using LightCycler 480 Real-Time PCR (Roche) and SYBR Green (Takara). The mRNA levels were normalized with the expression level of Gapdh.

[5] = system: Chrne, Colq, and Rapsn; experiment: Mouse sciatic nerve autologous transplantation model: mRNA in gastrocnemius muscle; type: in vivo; details: 8 weeks after surgery, 30 mg/kg/day
Text: Adult male C57BL/6J mice (8 weeks old; 19.5-22.0 g) were purchased from Charles River. The mice were anesthetized with isoflurane and underwent gluteal muscle incision under a sterile condition to expose the sciatic nerve in the left leg. The sciatic nerve was cut at the following two sites (1) and (2): (1) the site 3 mm distal to the first bifurcation of biceps femoris (hereinafter referred to as proximal transection site) (2) the site 3 mm distal to the proximal transection site (hereinafter referred to as distal transection site) The excised nerve segment with a length of 3 mm was confirmed to be completely cut at the two sites. The perineurium was sutured with nylon thread (10-0 black) at the proximal transection site and the distal transection site under a microscope. The remaining thread was used as a marker for finding the nerve transection site in the sacrifice of the mice. In order to reduce DMSO toxicity, a solution of 60 mg/mL zonisamide in 100% DMSO was prepared and the solution was diluted in olive oil to give a solution of 3 mg/mL zonisamide in 5% DMSO. The control solution (5% DMSO) or zonisamide (3 mg/mL×about 0.2 mL) at 30 mg/kg/day was administered to the stomach using a disposable probe needle (flexible type, Fuchigami) once a day for 1 to 8 weeks from the end of surgery until sacrifice. Myelin sheath formation in the sciatic nerve was analyzed in six mice in each group. One week after the sciatic nerve autologous transplantation, the sciatic nerve was transected at “the proximal transection site” and “the site 3 mm distal to the distal transection site” to excise a nerve segment with a length of 6 mm. […] The number and area of myelinated axons in the sciatic nerve were manually measured using ImageJ software in a blinded fashion. […] The mRNA expression levels of Bdnf, Ngf, Ntf4, Ntrk1, Ntrk2, Map2, Mapt, Gap43, Chrne, Colq, and Rapsn were quantified in a manner similar to Example 5.

[6] = dose dependency, 1 μmol/L to 20 μmol/L, FIG. 1
[7] = 2 and 3 days after zonisamide addition

## NS(=O)(=O)Cc1noc2ccccc12 [Zonisamide, 3-sulfamoylmethyl-1,2-benzisoxazole]
[1]
  axonal growth (average neurite length) in NSC34 cells: dose-dependent axonal growth
[2]; culture for 48 hours, tau staining
  neurite extension of primary motor neurons (screening of the 16 drugs): able to extend neurites
[2]; [6]
  axonal growth (average neurite length) in primary motor neurons: dose-dependent axonal growth
  number of branch points in axons of primary motor neurons: dose-dependent increase
[2]; neurite length of 25 micron or more, FIG. 1
  ratio of neurite-bearing cells in primary motor neurons: not increased
[3]; forty hours after zonisamide administration, FIG. 3
  neurite outgrowth effect, time-lapse imaging: neurite outgrowth effect was observed
[3]; throughout the observation period (3 days)
  neurite outgrowth effect, 10 μmol/L versus 1 μmol/L: higher in the 10 μmol/L zonisamide administration group than in the 1 μmol/L zonisamide administration group
[4]
  mRNA level of GAP43: not increased until day 3
  mRNA level of MAP2: not increased until day 3
  mRNA level of Mapt: not increased until day 3
  mRNA level of Ntrk1: increased
  mRNA level of Ntrk2: increased
[4]; [7]
  mRNA level of BDNF: increased
  mRNA level of NGF: increased
  mRNA level of NTF4: increased
[5]
  expression level of Chrne: increased
  expression level of Colq: increased
  expression level of Rapsn: increased
